The source of these data is patent US8084649B2, “Herbicides” (Syngenta Crop Protection, inc., priority 2007, dated 2011).

What all share (format): in vivo
Assay [1] has as its system Avena fatua (AVEFA). In words: Pre-emergence herbicidal activity, glasshouse pot test. Conditions: Avena fatua, 480 h, rate 500 g/ha, evaluated after 20 days, read-out: Pre-emergence activity, AVEFA (100=total damage to plant; 0=no damage to plant). Here is the method:
(§1) Monocotyledonous and dicotyledonous test plants were sown in sterilised standard soil in pots. After cultivation for one day (pre-emergence) or after 10 days cultivation (post-emergence) under controlled conditions in a glasshouse, the plants were sprayed with an aqueous spray solution derived from the formulation of the technical active ingredient in 0.6 ml acetone and 45 ml formulation solution containing 10.6% Emulsogen EL (Registry number 61791-12-6), 42.2% N-methylpyrrolidone, 42.2% dipropylene glycol monomethyl ether (Registry number 34590-94-8) and 0.2% X-77 (Registry number 11097-66-8). The test plants were then grown in a greenhouse under optimum conditions until, 14 or 15 days later for post-emergence and 20 days for pre-emergence, the test was evaluated (100=total damage to plant; 0=no damage to plant). Alopecurus myosuroides (ALOMY), Avena fatua (AVEFA), Lolium perenne (LOLPE), Setaria faberi (SETFA), Digitaria sanguinalis (DIGSA), Echinochloa crus-galli (ECHCG) Pre-Emergence Activity

For assay [2], the system named is Lolium perenne (LOLPE). The description is as above. Conditions: Lolium perenne, 480 h, rate 500 g/ha, evaluated after 20 days, read-out: Pre-emergence activity, LOLPE (100=total damage to plant; 0=no damage to plant). Here is the method:
as §1

The test system of assay [3] is Alopecurus myosuroides (ALOMY). The description is as above. The settings on record: Alopecurus myosuroides, 480 h, rate 500 g/ha, evaluated after 20 days, read-out: Pre-emergence activity, ALOMY (100=total damage to plant; 0=no damage to plant). As to the method:
as §1

The test system of assay [4] is Digitaria sanguinalis (DIGSA). Described as above. Conditions: Digitaria sanguinalis, 480 h, rate 500 g/ha, evaluated after 20 days, read-out: Pre-emergence activity, DIGSA (100=total damage to plant; 0=no damage to plant). As to the method:
as §1

Assay [5] relates to Setaria faberi (SETFA). The assay is described as above. Conditions: Setaria faberi, 480 h, rate 500 g/ha, evaluated after 20 days, read-out: Pre-emergence activity, SETFA (100=total damage to plant; 0=no damage to plant). As to the method: as §1
Assay [6] has as its system Echinochloa crus-galli (ECHCG). Described as above. The settings on record: Echinochloa crus-galli, 480 h, rate 500 g/ha, evaluated after 20 days, read-out: Pre-emergence activity, ECHCG (100=total damage to plant; 0=no damage to plant). As to the method: as §1
For assay [7], the system named is Avena fatua (AVEFA). Kind of assay: Post-emergence herbicidal activity, glasshouse pot test. Conditions: Avena fatua, rate 125 g/ha, evaluated after 14 or 15 days, read-out: Post-emergence activity, AVEFA (100=total damage to plant; 0=no damage to plant). Here is the method:
as §1, with “Post-Emergence” for “Pre-Emergence”

Assay [8] deals with Lolium perenne (LOLPE). The assay is described as above. Conditions: Lolium perenne, rate 125 g/ha, evaluated after 14 or 15 days, read-out: Post-emergence activity, LOLPE (100=total damage to plant; 0=no damage to plant). As to the method: as §1, with “Post-Emergence” for “Pre-Emergence”
The subject of assay [9] is Alopecurus myosuroides (ALOMY). The assay is described as above. The settings on record: Alopecurus myosuroides, rate 125 g/ha, evaluated after 14 or 15 days, read-out: Post-emergence activity, ALOMY (100=total damage to plant; 0=no damage to plant). Here is the method: as §1, with “Post-Emergence” for “Pre-Emergence”
The subject of assay [10] is Digitaria sanguinalis (DIGSA). Described as above. The settings on record: Digitaria sanguinalis, rate 125 g/ha, evaluated after 14 or 15 days, read-out: Post-emergence activity, DIGSA (100=total damage to plant; 0=no damage to plant). As to the method: as §1, with “Post-Emergence” for “Pre-Emergence”
The test system of assay [11] is Setaria faberi (SETFA). The description is as above. Conditions: Setaria faberi, rate 125 g/ha, evaluated after 14 or 15 days, read-out: Post-emergence activity, SETFA (100=total damage to plant; 0=no damage to plant). As to the method:
as §1, with “Post-Emergence” for “Pre-Emergence”

In assay [12] the test system is Echinochloa crus-galli (ECHCG). The description is as above. Conditions: Echinochloa crus-galli, rate 125 g/ha, evaluated after 14 or 15 days, read-out: Post-emergence activity, ECHCG (100=total damage to plant; 0=no damage to plant). As to the method: as §1, with “Post-Emergence” for “Pre-Emergence”

As for `CCc1cc(C)cc(CC)c1C1=C(OC(=O)CC(C)C)CC2(CCOCC2)CC1=O` [Compound P5], the pest or weed control at 500 g/ha in assay [1], in assay [2], in assay [3], in assay [4], in assay [5] and in assay [6] was 100% in each case. Besides, the pest or weed control at 125 g/ha stood at 100% in [7]; 100% in [8]; 100% in assay [9]; 100% in assay [10]; 90% in assay [11]; 100% in assay [12].

Turning to `CCc1cc(C)cc(CC)c1C1=C(OC(=O)Cc2ccc(F)cc2)CC2(CCOCC2)CC1=O` [Compound P7], the pest or weed control at 500 g/ha turned out to be 80% in assay [1]; 100% in [2]; 40% in [3]; 100% in [4]; 100% in [5]; 70% in assay [6]. Also, the pest or weed control at 125 g/ha in assay [7] is 80%; in assay [8], 100%; in [9], 80%; in assay [10], 80%; in assay [11], 80%; in assay [12], 80%.

Turning to `CCc1cc(C)cc(CC)c1C1=C(OC(=O)COC)CC2(CCOCC2)CC1=O` [Compound P8], the pest or weed control at 500 g/ha in [1] was found to be 90%; in assay [2] it was 100%; in [3] it was 100%; in assay [4] it was 100%; in [5], 100%; in [6] it was 100%. For the same compound, the pest or weed control at 125 g/ha in assay [7] was 100%; in [8], 90%; in assay [9] it was 90%; in [10], 100%; in [11] it was 90%; in [12], 100%.

Regarding `CCc1cc(C)cc(CC)c1C1=C(OC(=O)C2CC2)CC2(CCOCC2)CC1=O` [Compound P9], the pest or weed control at 500 g/ha in assay [1], in assay [2], in assay [3], in [4], in [5] and in [6] was 100% throughout. The pest or weed control at 125 g/ha worked out at 100% in [7]; 90% in [8]; 80% in assay [9]; 90% in [10]; 90% in [11]; 100% in assay [12].

For the compound `CCc1cc(C)cc(CC)c1C1=C(OC(=O)CC2CCCC2)CC2(CCOCC2)CC1=O` [Compound P11], the pest or weed control at 500 g/ha stood at 90% in assay [1]; 90% in assay [2]; 100% in assay [3]; 100% in [4]; 100% in assay [5]; 90% in assay [6]. For the same compound, the pest or weed control at 125 g/ha in [7] amounted to 100%; in assay [8], 90%; in [9], 90%; in assay [10], 70%; in assay [11], 70%; in assay [12], 70%.

Consider `CCc1cc(C)cc(CC)c1C1=C(OC(=O)C2CCCCC2)CC2(CCOCC2)CC1=O` [Compound P12], for which the pest or weed control at 500 g/ha in assay [1], in [2], in assay [3], in [4], in assay [5] and in assay [6] was 100% each time. In addition, the pest or weed control at 125 g/ha in assay [7] was 90%; in [8], 100%; in [9], 80%; in assay [10], 90%; in [11], 90%; in assay [12] it was 100%.

Turning to `CCc1cc(C)cc(CC)c1C1=C(OC(=O)C(C)CC)CC2(CCOCC2)CC1=O` (stereo not drawn) [Compound P13], the pest or weed control at 500 g/ha in assay [1], in assay [2], in assay [3], in assay [4], in assay [5] and in assay [6] was 100% each time. Moreover, the pest or weed control at 125 g/ha in assay [7] was found to be 100%; in assay [8] it was 90%; in [9], 90%; in assay [10], 100%; in [11], 90%; in assay [12], 100%.

Turning to `CCc1cc(C)cc(CC)c1C1=C(OC(=O)C(CC)CC)CC2(CCOCC2)CC1=O` [Compound P14], the pest or weed control at 500 g/ha is 100% in assay [1]; 100% in assay [2]; 100% in [3]; 100% in [4]; 100% in assay [5]; 90% in [6]. Moreover, the pest or weed control at 125 g/ha in [7] was 80%; in [8], 80%; in assay [9], 80%; in assay [10], 70%; in assay [11], 60%; in assay [12] it was 60%.

With `CCOC(=O)OC1=C(c2c(CC)cc(C)cc2CC)C(=O)CC2(CCOCC2)C1` [Compound P16], the pest or weed control at 500 g/ha in [1], in [2], in [3], in assay [4], in assay [5] and in [6] was 100% throughout. In addition, the pest or weed control at 125 g/ha came out at 90% in [7]; 100% in assay [8]; 100% in assay [9]; 100% in [10]; 70% in assay [11]; 100% in [12].
